Assay results published in ChEMBL document CHEMBL4823276, “Comparative studies on the substrate specificity and defucosylation activity of three α-l-fucosidases using synthetic fucosylated glycopeptides and glycoproteins as substrates” (Bioorg Med Chem, 2021).

How the values were obtained:
Format in all cases: ADME
[1] = Substrate activity at recombinant His-tagged Bacteroides fragilis alpha L-fucosidase expressed in Escherichia coli BL21(DE3) assessed as formation of p-nitrophenyl products at 5 mM measured by UV spectrometer assay; details: 5000 µM
[2] = Substrate activity at recombinant His-tagged Lactobacillus casei alpha L-fucosidase expressed in Escherichia coli […] assessed as formation of p-nitrophenyl products at 5 mM measured by UV spectrometer assay; details: lacticaseibacillus casei, 5000 µM
[3] = Substrate activity at recombinant His-tagged Lactobacillus casei alpha L-fucosidase expressed in Escherichia coli […] assessed as de-fucosylation of N-glycan at 5 mg/ml measured after 21 hrs by LC/MS analysis; details: lacticaseibacillus casei
[4] = Substrate activity at recombinant His-tagged Bacteroides fragilis alpha L-fucosidase expressed in Escherichia coli BL21(DE3) assessed as de-fucosylation of N-glycan at 5 mg/ml measured after 21 hrs by LC/MS analysis

SMILES	Activity [1]	Activity [2]	Activity [3]	Activity [4]
C[C@@H]1O[C@@H](Oc2ccc([N+](=O)[O-])cc2)[C@@H](O)[C@H](O)[C@@H]1O	Active	Not Active	–	–
CC(=O)N[C@@H]1[C@@H](O)[C@H](O[C@@H]2O[C@H](CO)[C@@H](O[C@@H]3O[C@H](CO[C@H]4O[C@H](CO)[C@@H](O)[C@H](O)[C@@H]4O[C@@H]4O[C@H](CO[C@@H]5O[C@H](CO[C@]6(C(=O)O)C[C@H](O)[C@@H](NC(C)=O)C([C@H](O)[C@H](O)CO)O6)[C@H](O)[C@H](O)[C@H]5O)[C@@H](O)[C@H](O)[C@H]4NC(C)=O)[C@@H](O)[C@H](O[C@H]4O[C@H](CO)[C@@H](O)[C@H](O)[C@@H]4O[C@@H]4O[C@H](CO)[C@@H](O[C@@H]5O[C@H](CO[C@]6(C(=O)O)C[C@H](O)[C@@H](NC(C)=O)C([C@H](O)[C@H](O)CO)O6)[C@H](O)[C@H](O)[C@H]5O)[C@H](O)[C@H]4NC(C)=O)[C@@H]3O)[C@H](O)[C@H]2NC(C)=O)[C@@H](CO[C@H]2O[C@H](C)[C@H](O)[C@H](O)[C@H]2O)O[C@H]1NC(=O)CNC(=O)C[C@H](NC(=O)[C@H](CCC(N)=O)NC(=O)CN)C(=O)N[C@@H](CC(=O)O)C(=O)N[C@H](C(=O)N[C@@H](CO)C(=O)N[C@@H](CCC(N)=O)C(=O)N[C@H](C(=O)N[C@@H](CO)C(=O)N[C@@H](CO)C(=O)N1CCC[C@H]1C(=O)N[C@@H](CO)C(=O)N[C@@H](CC(C)C)C(=O)N1CCC[C@H]1C(=O)N[C@@H](CCCCN)C(=O)N[C@H](C(=O)NCC(=O)NCC(=O)N[C@@H](CO)C(=O)O)[C@@H](C)O)[C@@H](C)O)[C@@H](C)O (some centres undefined)	–	–	Not Active	Not Active
